Data from patent US20060183902A1, “Dihydroindolyl methanones as alpha 1a/1d adrenoreceptor modulators for the treatment of benign prostatic hypertrophy and lower urinary tract symptoms” (priority 2005, published 2006).
Where “and” joins values, the source holds several entries; their conditions need not be identical. Equal values may be shown once.

Legend:
[1] = target: T1, α1a-AR (Homo sapiens, UniProt P35348); assay: α1-Adrenergic receptor radio-ligand (125I-HEAT) binding assay, α1a subtype; conditions: COS-7 cell membranes transfected with α1a-AR, 125I-HEAT 50 pM; read-out: Receptor Binding, Ki α1a-AR
T1 construct: expressed in transfected cells; host or cells: COS-7
T1 sequence (P35348 1-466): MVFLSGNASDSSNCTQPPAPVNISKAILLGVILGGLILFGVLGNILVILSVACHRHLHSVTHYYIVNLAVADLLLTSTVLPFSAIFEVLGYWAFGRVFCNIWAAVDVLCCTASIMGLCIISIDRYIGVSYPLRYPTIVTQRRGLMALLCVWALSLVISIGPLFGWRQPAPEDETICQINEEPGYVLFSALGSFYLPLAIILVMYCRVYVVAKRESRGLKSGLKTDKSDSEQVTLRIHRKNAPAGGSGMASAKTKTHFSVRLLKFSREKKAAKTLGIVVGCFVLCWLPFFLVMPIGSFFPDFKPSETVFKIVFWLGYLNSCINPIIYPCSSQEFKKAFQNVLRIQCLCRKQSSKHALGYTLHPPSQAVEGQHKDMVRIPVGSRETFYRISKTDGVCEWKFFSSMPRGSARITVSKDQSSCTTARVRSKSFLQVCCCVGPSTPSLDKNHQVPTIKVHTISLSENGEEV
Procedure: (§1) Membranes were prepared from COS-7 cells (African Green monkey kidney SV40-transformed cells) that had been transfected with one of the three α1-AR subtypes by the following method:
(§2) COS cells from ten 100 mm tissue culture plates were scraped into a 5 mL volume of TE (a mixture of 50 mM tris(hydroxymethyl)aminomethane hydrochloride (Tris-HCl) and 5 mM ethylenediaminetetraacetic acid (EDTA) at pH 7.4). The cell suspension was disrupted with a Brinkman Polytron (at a setting of 8) for 10 sec. The disrupted cells were centrifuged at 1000×g for 10 min at 4° C. Supernatants were centrifuged at 34,500×g for 20 min at 4° C. The membrane pellets were suspended in a 2 mL volume of TNE (a mixture of 50 mM Tris-HCl, 5 mM EDTA and 150 mM NaCl at pH7.4). An aliquot of the membrane suspension was stored at −70° C. until use. The protein concentration was determined using a BioRad “DC” protein assay kit following membrane solubilization with Triton X-100.
(§3) Triplicate determinations of radio-ligand binding in the presence of increasing concentrations of testing compound were made. The reagents were added to 96-well polypropylene plate wells. Each assay well contained 140 μL TNE, 25 μL ^125I-2-(β-4-hydroxyplenyl)ethylaminomethyltetralone (^125I-HEAT) (specific activity 2200 Ci/mmol, Dupont-New England Nuclear, 50 pM final), 10 μL testing compound dissolved in dimethyl sulfoxide (DMSO) (1 pM to 10 μM in half-log increments, final), and 25 μL appropriate α1-AR membrane subtype suspension in TNE (0.5 ng/μL for the α1a and α1b subtypes and 13 ng/μL for the α1d subtype). The plate was incubated at rt for 1 hr. The contents of the wells were filtered through a glass filter (type C) (GF/C) membrane Unifilter plate (Packard Instruments) using the Packard Filtermate cell harvester. The filter plates were dried in a vacuum oven for 30 min at 40° C. 25 μL Microscint 20 liquid scintillation fluid (Packard Instuments) was added to each well. The radioactive content was analyzed in the TopCount microplate scintillation counter (Packard Instruments).
(§4) The Ki values (in nM) shown in Table 1 were determined using GraphPad Prism software.

[2] = target: T2, α1b-AR (Homo sapiens, UniProt P35368); assay: α1-Adrenergic receptor radio-ligand (125I-HEAT) binding assay, α1b subtype; conditions: COS-7 cell membranes transfected with α1b-AR, 125I-HEAT 50 pM; read-out: Receptor Binding, Ki α1b-AR
T2 construct: expressed in transfected cells; host or cells: COS-7
T2 sequence (P35368 1-520): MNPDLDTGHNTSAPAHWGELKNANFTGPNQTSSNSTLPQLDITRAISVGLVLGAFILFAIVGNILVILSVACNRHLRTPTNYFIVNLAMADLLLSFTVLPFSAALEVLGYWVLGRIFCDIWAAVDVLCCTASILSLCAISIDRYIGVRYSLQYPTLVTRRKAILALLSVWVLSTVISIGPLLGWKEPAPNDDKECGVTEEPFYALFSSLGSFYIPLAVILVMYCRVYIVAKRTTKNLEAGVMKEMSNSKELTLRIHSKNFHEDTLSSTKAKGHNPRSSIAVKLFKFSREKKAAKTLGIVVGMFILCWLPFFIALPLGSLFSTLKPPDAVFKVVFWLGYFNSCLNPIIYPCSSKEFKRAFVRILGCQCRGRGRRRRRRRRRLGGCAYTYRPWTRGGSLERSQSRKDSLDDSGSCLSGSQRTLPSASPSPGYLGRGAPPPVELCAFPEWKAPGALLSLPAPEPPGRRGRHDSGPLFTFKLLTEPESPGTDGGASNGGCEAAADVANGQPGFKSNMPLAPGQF
Procedure: as §1, §2, §3, §4

[3] = target: T3, α1d-AR (Homo sapiens, UniProt P25100); assay: α1-Adrenergic receptor radio-ligand (125I-HEAT) binding assay, α1d subtype; conditions: COS-7 cell membranes transfected with α1d-AR, 125I-HEAT 50 pM; read-out: Receptor Binding, Ki α1d-AR
T3 construct: expressed in transfected cells; host or cells: COS-7
T3 sequence (P25100 1-572): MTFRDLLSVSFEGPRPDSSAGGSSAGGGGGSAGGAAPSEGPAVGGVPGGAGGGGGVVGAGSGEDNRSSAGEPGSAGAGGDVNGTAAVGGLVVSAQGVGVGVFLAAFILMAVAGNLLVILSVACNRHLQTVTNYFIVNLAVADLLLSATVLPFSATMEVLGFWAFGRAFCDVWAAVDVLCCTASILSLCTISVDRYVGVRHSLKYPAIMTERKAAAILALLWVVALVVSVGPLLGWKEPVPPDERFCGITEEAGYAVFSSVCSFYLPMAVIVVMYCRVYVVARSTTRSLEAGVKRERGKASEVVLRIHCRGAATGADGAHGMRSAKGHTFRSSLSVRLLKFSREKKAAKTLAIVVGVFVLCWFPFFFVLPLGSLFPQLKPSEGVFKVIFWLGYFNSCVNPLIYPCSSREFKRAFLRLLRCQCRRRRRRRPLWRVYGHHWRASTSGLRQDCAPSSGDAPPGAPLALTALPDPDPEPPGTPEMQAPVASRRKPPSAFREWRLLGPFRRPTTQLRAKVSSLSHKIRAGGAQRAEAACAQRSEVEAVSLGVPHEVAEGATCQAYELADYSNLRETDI
Procedure: as §1, §2, §3, §4

Ki [1]	Ki [2]	Ki [3]	SMILES
48 nM	1470 nM	15 nM	CCOC(OCC)c1ccc(CNc2ccc3c(c2)CCN3C(=O)c2cccc(CN3CCN(c4ccccc4OC(C)C)CC3)c2)cc1 [Cpd 24, [5-(4-diethoxymethyl-benzylamino)-2,3-dihydro-indol-1-yl]-{3-[4-(2-isopropoxy-phenyl)-piperazin-1-ylmethyl]-phenyl}-methanone]
16.5 nM	379 nM	11 nM	CC(C)Oc1ccccc1N1CCN(Cc2cccc(C(=O)N3CCc4cc(NCc5ccc6c(c5)OCO6)ccc43)c2)CC1 [Cpd 27, {5-[(benzo[1,3]dioxol-5-ylmethyl)-amino]-2,3-dihydro-indol-1-yl}-{3-[4-(2-isopropoxy-phenyl)-piperazin-1-ylmethyl]-phenyl}-methanone]
17 nM	796 nM	6.8 nM	COc1cccc(OC)c1C(=O)Nc1ccc2c(c1)N(C(=O)c1cccc(CN3CCN(c4ccccc4OC(C)C)CC3)c1)CC2 [Cpd 28, N-(1-{3-[4-(2-isopropoxy-phenyl)-piperazin-1-ylmethyl]-benzoyl}-2,3-dihydro-1H-indol-6-yl)-2,6-dimethoxy-benzamide]
26 nM and 30.5 nM	278 nM and 193 nM	4.5 nM and 42 nM	COc1ccccc1N1CCN(Cc2cccc(C(=O)N3CCc4ccccc43)c2)CC1 [Cpd 30, (2,3-dihydro-indol-1-yl)-{3-[4-(2-methoxy-phenyl)-piperazin-1-ylmethyl]-phenyl}-methanone]
171 nM	331 nM	11.6 nM and 88 nM	N#Cc1ccccc1N1CCN(Cc2cccc(C(=O)N3CCc4ccccc43)c2)CC1 [Cpd 31, (2,3-dihydro-indol-1-yl)-{3-[4-(2-cyano-phenyl)-piperazin-1-ylmethyl]-phenyl}-methanone]
48.8 nM	658 nM	49.1 nM	COc1ccccc1C1CCN(Cc2ccc(C(=O)N3CCc4cc(N)ccc43)cc2)CC1 [Cpd 33, (5-amino-2,3-dihydro-indol-1-yl)-{4-[4-(2-methoxy-phenyl)-piperidin-1-ylmethyl]-phenyl}-methanone]
34.9 nM	473 nM	49.6 nM	COc1ccccc1C1CCN(Cc2ccc(C(=O)N3CCc4ccc(N)cc43)cc2)CC1 [Cpd 34, (6-amino-2,3-dihydro-indol-1-yl)-{4-[4-(2-methoxy-phenyl)-piperidin-1-ylmethyl]-phenyl}-methanone]
5.3 nM	201 nM	8.5 nM	COc1ccccc1C1CCN(Cc2ccc(C(=O)N3CCc4ccc([N+](=O)[O-])cc43)cc2)CC1 [Cpd 35, {4-[4-(2-methoxy-phenyl)-piperidin-1-ylmethyl]-phenyl}-(6-nitro-2,3-dihydro-indol-1-yl)-methanone]
39.2 nM	1010 nM	40.2 nM	CCOC(OCC)c1ccc(CNc2ccc3c(c2)CCN3C(=O)c2ccc(CN3CCC(c4ccccc4OC)CC3)cc2)cc1 [Cpd 36, [5-(4-diethoxymethyl-benzylamino)-2,3-dihydro-indol-1-yl]-{4-[4-(2-methoxy-phenyl)-piperidin-1-ylmethyl]-phenyl}-methanone]
75.6 nM	909 nM	98 nM	CCOC(OCC)c1ccc(CNc2ccc3c(c2)N(C(=O)c2ccc(CN4CCC(c5ccccc5OC)CC4)cc2)CC3)cc1 [Cpd 37, [6-(4-diethoxymethyl-benzylamino)-2,3-dihydro-indol-1-yl]-{4-[4-(2-methoxy-phenyl)-piperidin-1-ylmethyl]-phenyl}-methanone]
124 nM	461 nM	44.2 nM	COc1ccccc1C1CCN(Cc2ccc(C(=O)N3CCc4cc([N+](=O)[O-])ccc43)cc2)CC1 [Cpd 38, {4-[4-(2-methoxy-phenyl)-piperidin-1-ylmethyl]-phenyl}-(5-nitro-2,3-dihydro-indol-1-yl)-methanone]
